# Measurements from patent US20250243160A1, “INDOLE DERIVATIVES FOR TARGETING AUTOPHAGY” (Automera PTE. LTD, priority 2024, published 2025).
# Key:
# Recombinant p62 protein = Recombinant p62 protein (Homo sapiens, UniProt Q13501); assay: Surface plasmon resonance (SPR) compound binding to p62; conditions: 15° C
# Experimental: Recombinant p62 protein was buffer exchanged into Biacore SPR running buffer (Cytiva 100671) using the Slide-A-Lyzer Mini Dialysis system 7K MWCO (Thermo Fisher Scientific, Cat no. 69560). The final protein concentration was determined using the Nanodrop One spectrophotometer (Thermo Fisher Scientific, cat no. ND-ONE-W), with calibration for the dialysis buffer.
# The prepared protein was diluted in sodium acetate buffer (NaAc, pH 5.5, Cytiva) to concentrations ranging from approximately 0.25-40 μg/mL. Post-immobilization, the protein required approximately 16 hours of equilibration in running buffer supplemented with 1% DMSO at 15° C. to ensure adequate surface equilibration and protein reorganization.
# All SPR experiments were conducted at a constant temperature of 15° C. The SPR chip surface was activated using EDC/NHS for a contact time of 6-10 min at a flow rate of 10 μL/min. This was followed by protein immobilization for 2100 seconds and ethanolamine capping for 420 seconds, both at the same flow rate. Immediately after immobilization, the NH2-REEE peptide was analyzed in Single Cycle Kinetics mode (SCK) to verify surface activity, ensuring it binds the sample with the published affinity (˜20 μM by SPR).
# For general compound binding studies, experiments were performed at 15° C. using a running buffer composed of 10 mM HEPES, 150 mM NaCl, 1 mM DTT, 0.05% Tween 20, and 1% DMSO at pH 7.4. The test compound was initially prepared at a 20 mM concentration in DMSO and subsequently titrated in 2-fold dilutions. For each assay, 2 μL of the compound was mixed with 198 μL of the running buffer, and the mixture was thoroughly pipetted approximately 15 times for homogenization.
# A series of blank injections (0 μM concentration) were included for double referencing, with at least 8 or 16 per plate depending on the format. Typical injection parameters were 120 seconds for association and 180 seconds for dissociation at a flow rate of […]. A four-point solvent correction was prepared with DMSO concentrations ranging from 2% to 0.5% in the buffer. Post each compound injection, the system's needles were washed with 50% DMSO.
# Analysis of the SPR data was conducted using the Cytiva Evaluation software. The binding levels at the late time-point of each interaction were corrected for reference, then normalized to percentage bound values to account for variations in immobilization levels, protein molecular weight, and compound molecular weight.
# Compound binding studies were carried out according to experimental procedures above and SPR % occupancy was determined and summarized in Table 7.
# p62 puncta = p62 puncta immunocytochemistry imaging in HeLa cells; type: cell-based; conditions: 24 hours treatment, relative to vehicle control (DMSO)
# Experimental: HeLa cells were seeded in coated 96-well plates (10,000 cells) and allowed to adhere overnight. After 24 hours of treatment with either vehicle (DMSO) or test compounds, the media was discarded, and cells were rinsed with ice-cold 1×PBS before fixation by 4% formaldehyde or paraformaldehyde for 20 min. Cells were then washed with 1×PBS and permeabilized with 0.1% Triton X-100 in PBS for 20 min and blocked with Blocking Buffer in PBS for 1 hour. The cells were incubated thereafter for 1 hour with anti-p62 primary antibody in Blocking Buffer, followed by incubation with secondary antibody for 1 hour. DAPI dye was used to visualize nuclei of fixed cells. The blocking buffer used were 5% Fetal Bovine Serum (FBS, ThermoFIsher Scientific, 10270106) and Li-cor Intercept (PBS) Blocking Buffer (Li-cor, 927-70001). The primary antibody used was mouse anti-p62 primary antibody (Novus Biologicals, H00008878-M01). The secondary antibodies used were goat anti-mouse Alexa Fluor Plus 488 secondary antibody (Invitrogen, GOXMS) and goat anti-mouse Alexa Fluor 488 secondary antibody (Invitrogen, A-11029). The DAPI dyes used were DAPI dye (Invitrogen, 62248) and DAPI dye (Invitrogen, D1306).
# For the EVOS M7000 System, cells were imaged on the EVOS M7000 microscope using a 20× air objective (Nikon, N.A 0.45). DAPI and p62 channels were illuminated with LED light cubes using integrated hard-coated filter sets for DAPI (357/447 nm) and GFP (470/525 nm) respectively. Images were analysed for p62 puncta count on the Celeste 6.0 software.
# For the Operetta CLS System, cells were imaged on the Operetta CLS using a 63× water objective on the DAPI and Alexa 488 channels. Images were analysed for p62 puncta count on the Harmony 5.1 software.
# HeLa cells were treated with compounds for 24 hours to evaluate the effect of these compounds on p62 puncta activity. The resulting changes in levels of p62 puncta were assessed by imaging, either on the EVOS M7000 or Operetta CLS systems as described in experimental procedures. The fold change of p62 puncta levels induced by compound treatment relative to vehicle control (DMSO) was determined and summarized in Table 10.
# Chain of Recombinant p62 protein (Q13501 whole entry, species assumed): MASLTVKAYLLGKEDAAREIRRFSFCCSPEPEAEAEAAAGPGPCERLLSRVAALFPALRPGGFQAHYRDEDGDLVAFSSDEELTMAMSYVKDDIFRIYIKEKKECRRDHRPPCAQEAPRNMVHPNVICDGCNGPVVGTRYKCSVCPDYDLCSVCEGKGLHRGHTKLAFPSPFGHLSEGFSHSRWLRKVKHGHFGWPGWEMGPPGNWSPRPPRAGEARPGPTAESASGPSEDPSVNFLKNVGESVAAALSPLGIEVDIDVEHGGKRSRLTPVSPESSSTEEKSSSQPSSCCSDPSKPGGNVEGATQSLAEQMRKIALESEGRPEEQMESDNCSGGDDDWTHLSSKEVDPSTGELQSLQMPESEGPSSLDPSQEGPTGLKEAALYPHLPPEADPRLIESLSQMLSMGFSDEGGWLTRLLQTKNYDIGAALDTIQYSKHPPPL
receptor occupancy at 100 µM (Recombinant p62 protein) [%],Structure (SMILES),p62 puncta (fold change of p62 puncta levels) (p62 puncta)
30 to 70,OCCNCc1cccc2c1ccn2Cc1ccccc1Cl [Compound 12],–
< 30,"CC(=O)N1CCC(COCCNCc2cccc3c2ccn3Cc2ccccc2)CC1 [Compound 85, 1-(4-((2-(((1-benzyl-1H-indol-4-yl)methyl)amino)ethoxy)methyl)piperidin-1-yl)ethan-1-one]",–
< 30,"O=C(NCCO)NCc1cccc2c1ccn2Cc1ccccc1 [Compound 53, 1-((1-benzyl-1H-indol-4-yl)methyl)-3-(2-hydroxyethyl)urea]",–
< 30,OCCNCc1cccc2c1ccn2Cc1ccncc1 [Compound 14],–
30 to 70,OCCNCc1cccc2c1ccn2CC1CCOCC1 [Compound 24],–
30 to 70,O=C(CO)NCc1cccc2c1ccn2Cc1ccc(F)cc1 [Compound 46],–
30 to 70,OCCNCc1ccc2c(ccn2Cc2ccccc2)c1 [Compound 38],–
–,C#CCCCCCOCCNCc1cc(F)cc2c1ccn2Cc1ccc(Cl)cc1 [Compound 148],+ (<2-fold change in p62 puncta levels relative to DMSO control)
–,CC(C)(C)OC(=O)NC[C@H]1CC[C@H](COCCNCc2cc(F)cc3c2ccn3Cc2ccc(Cl)cc2)CC1 [Compound 175],++ (>2-fold change in p62 puncta levels relative to DMSO control)
–,OCCNCc1ccc(Cl)c2c1ccn2Cc1ccc(F)cc1 [Compound 80],++ (>2-fold change in p62 puncta levels relative to DMSO control)
–,CC(C)(C)OC(=O)Nc1ccc(COCCNCc2cc(F)cc3c2ccn3Cc2ccc(Cl)cc2)cc1 [Compound 160],++ (>2-fold change in p62 puncta levels relative to DMSO control)
–,"O=C(Cn1ccc2c(CNCCO)cc(F)cc21)c1ccc(F)cc1 [Compound 83, 2-(6-fluoro-4-(((2-hydroxyethyl)amino)methyl)-1H-indol-1-yl)-1-(4-fluorophenyl)ethan-1-one]",++ (>2-fold change in p62 puncta levels relative to DMSO control)
–,CC(C)(C)OC(=O)CCCCCOCCNCc1cc(F)cc2c1ccn2Cc1ccc(Cl)cc1 [Compound 150],+ (<2-fold change in p62 puncta levels relative to DMSO control)
–,C#CCCOCCOCCNCC(O)COc1cccc2c1ccn2Cc1ccccc1 (centres unmarked) [Compound 117],++ (>2-fold change in p62 puncta levels relative to DMSO control)
–,C#CCCOCCOCCOCCNCc1cccc2c1ccn2CCc1cccnc1 [Compound 126],+ (<2-fold change in p62 puncta levels relative to DMSO control)
–,CC(C)(C)OC(=O)COCCNCc1cc(F)cc2c1ccn2Cc1ccc(Cl)cc1 [Compound 141],+ (<2-fold change in p62 puncta levels relative to DMSO control)
–,COC(=O)c1ccc(OCCOCCNCc2cc(F)cc3c2ccn3Cc2ccc(Cl)cc2)cc1 [Compound 168],++ (>2-fold change in p62 puncta levels relative to DMSO control)
–,C#CCCCCCCOCCNCc1cc(F)cc2c1ccn2Cc1ccc(Cl)cc1 [Compound 151],+ (<2-fold change in p62 puncta levels relative to DMSO control)
–,COC(=O)CCOCCNCC(O)COc1cccc2c1ccn2Cc1ccccc1 (centres unmarked) [Compound 118],++ (>2-fold change in p62 puncta levels relative to DMSO control)

receptor occupancy at 100 µM (Recombinant p62 protein) [%],Structure (SMILES),p62 puncta (fold change of p62 puncta levels) (p62 puncta)
–,COC(=O)c1ccc(N2CCC(COCCNCc3cc(F)cc4c3ccn4Cc3ccc(Cl)cc3)CC2)cc1 [Compound 171],++ (>2-fold change in p62 puncta levels relative to DMSO control)
–,Cc1cn(Cc2ccc(F)cc2)c2cc(F)cc(CNCCO)c12 [Compound 81],++ (>2-fold change in p62 puncta levels relative to DMSO control)
–,C#CCCN1CCC(OCCNCc2cc(F)cc3c2ccn3Cc2ccc(Cl)cc2)CC1 [Compound 119],++ (>2-fold change in p62 puncta levels relative to DMSO control)
–,CC(C)(C)OC(=O)NCCN1CCN(CCOCCNCc2cc(F)cc3c2ccn3Cc2ccc(Cl)cc2)CC1 [Compound 128],++ (>2-fold change in p62 puncta levels relative to DMSO control)
–,C#Cc1ccc(COCCNCc2cc(F)cc3c2ccn3Cc2ccc(Cl)cc2)cc1 [Compound 173],++ (>2-fold change in p62 puncta levels relative to DMSO control)
–,CC(C)(C)OC(=O)NCCCCCCCCOCCNCc1cc(F)cc2c1ccn2Cc1ccc(Cl)cc1 [Compound 158],++ (>2-fold change in p62 puncta levels relative to DMSO control)
–,COC1CN(Cc2cncc3c2ccn3Cc2ccc(F)cc2)C1 [Compound 114],+ (<2-fold change in p62 puncta levels relative to DMSO control)
–,CC(C)(C)OC(=O)COCCCOCCNCc1cc(F)cc2c1ccn2Cc1ccc(Cl)cc1 [Compound 139],+ (<2-fold change in p62 puncta levels relative to DMSO control)
–,COC(=O)c1ccc(COCCNCc2cc(F)cc3c2ccn3Cc2ccc(Cl)cc2)cc1 [Compound 144],+ (<2-fold change in p62 puncta levels relative to DMSO control)
–,C#CCCOCCNCc1cc(F)cc2c1ccn2Cc1ccc(Cl)cc1 [Compound 143],++ (>2-fold change in p62 puncta levels relative to DMSO control)
–,CC(C)(C)OC(=O)CCOCCOCCNCc1cc(F)cc2c1ccn2Cc1ccc(Cl)cc1 [Compound 138],++ (>2-fold change in p62 puncta levels relative to DMSO control)
–,CNCCOCc1cc(F)cc2c1ccn2Cc1ccc(Cl)cc1 [Compound 178],++ (>2-fold change in p62 puncta levels relative to DMSO control)
–,CC(C)(C)OC(=O)N1CC(OCCNCc2cc(F)cc3c2ccn3Cc2ccc(Cl)cc2)C1 [Compound 167],++ (>2-fold change in p62 puncta levels relative to DMSO control)
–,CC(C)(C)OC(=O)NCCOCCNCc1cc(F)cc2c1ccn2Cc1ccc(Cl)cc1 [Compound 133],++ (>2-fold change in p62 puncta levels relative to DMSO control)
–,CC(C)(C)OC(=O)N1CCC(COCCOCCNCc2cc(F)cc3c2ccn3Cc2ccc(Cl)cc2)CC1 [Compound 174],++ (>2-fold change in p62 puncta levels relative to DMSO control)
–,COC(=O)CCOCCOCCOCCNCc1cc(F)cc2c1ccn2Cc1ccc(Cl)cc1 [Compound 169],+ (<2-fold change in p62 puncta levels relative to DMSO control)
–,OCCNCc1cncc2c1ccn2Cc1ccc(F)cc1 [Compound 113],+ (<2-fold change in p62 puncta levels relative to DMSO control)
–,C#CCCCCCCCCOCCNCc1cc(F)cc2c1ccn2Cc1ccc(Cl)cc1 [Compound 170],++ (>2-fold change in p62 puncta levels relative to DMSO control)
–,CC(C)(C)OC(=O)N1CCC(COCCNCc2cc(F)cc3c2ccn3Cc2ccc(Cl)cc2)CC1 [Compound 134],++ (>2-fold change in p62 puncta levels relative to DMSO control)
